Measured values: patent US6762294B2, “Polynucleotides encoding polymorphic human GABAA receptor α-6 subunit” (The United States of America as represented by the …, priority 1999, dated 2004)
Where two headings read alike, the source gives them in different places.

Tests used:
[1] = system: children of alcoholics (COAs); assay: Smooth pursuit eye movement task after intravenous diazepam; format: in vivo, human; settings: COAs having the Pro385Ser allele relative to COAs having the Pro385 genotype
Procedure: Initially, the saccadic eye movement velocity and smooth pursuit eye movement gain was measured in the 56 COAs tested. Two baseline measurements for each variable were taken and averaged. The differences from this baseline were then evaluated at set time points after each of four diazepam doses. The data points were used to determine, by a trapezoidal technique, the integrated area under the resulting curve. The area under the curve for the dependent variable was then divided by the area under the curve for plasma diazepam levels to correct for individual variability in diazepam levels. The ratios of the areas under the curves for COAs with the Ser385 homozygous genotype and the Pro/Ser heterozygous genotype were then compared by t-test. […] For the G1031C genotype, a one-way ANOVA was used for assessing association.
COAs were tested on two days about one week apart. Intravenous catheters were inserted into antecubital veins in each of the subjects arms. One intravenous line was used for drawing blood while the other was used for administration of either diazepam or placebo. […]
On each testing day, responses were measured at 12 separate time points: twice at baseline, once after each of the four doses, and at each of six 30 minute intervals after the last dose for a period spanning three hours. Eye movements were evaluated at each time point. […]

[2] = system: sons of alcoholics and controls (men)
Source text: As part of a larger study, 41 men, were selected from among the first 113 completed 15-year follow-ups in a prospective study. […] Seventeen subjects whose low level of response to ethanol (LR) were in the lower third were compared on five polymorphisms of four genes with 24 men whose reactions to alcohol had been above the median.
For this pilot study, blood samples were taken from the first 41 appropriate consecutive men among the first 113 who completed 15-year follow-ups in an ongoing study. In order to identify subjects who were clearly low on LR, the men were selected to represent the two poles of LR. […] The alcohol challenges, evaluated changes from baseline for subjective feeling of intoxication, standing steadiness, and hormones after drinking 0.75 ml/kg of ethanol. (Schuckit and Gold, Arch Gen Psychiatry 45:211-216 (1986). The overall LR was evaluated as the change from baseline (pre-alcohol) to the time of peak blood alcohol concentration (BAC) (60 minute values) following alcohol consumption.

CN1C(=O)CN=C(c2ccccc2)c2cc(Cl)ccc21 [diazepam]
Sensitivity to diazepam (average smooth pursuit eye movement gain) [1]: reduced sensitivity

CCO [ethanol]
mean (±SD) LR ([2]; 0.75 ml/kg ethanol, 5-HT2A His452Tyr genotype His-His): −.44 | mean (±SD) LR ([2]; 0.75 ml/kg ethanol, 5-HT2A His452Tyr genotype His-Tyr): −.20 | mean (±SD) LR ([2]; 0.75 ml/kg ethanol, 5-HT2A T102C genotype CC): −.46 | mean (±SD) LR ([2]; 0.75 ml/kg ethanol, 5-HT2A T102C genotype TC): −.31 | mean (±SD) LR ([2]; 0.75 ml/kg ethanol, 5-HT2A T102C genotype TT): −.71 | mean (±SD) LR ([2]; 0.75 ml/kg ethanol, 5-HT2C Cys23Ser genotype Cys): −.39 | mean (±SD) LR ([2]; 0.75 ml/kg ethanol, 5-HT2C Cys23Ser genotype Ser): −.73 | mean (±SD) LR ([2]; 0.75 ml/kg ethanol, 5-HT Transporter genotype SL): −.30 | mean (±SD) LR ([2]; 0.75 ml/kg ethanol, 5-HT Transporter genotype SS): −.00 | mean (±SD) LR ([2]; 0.75 ml/kg ethanol, GABAA α6 genotype Pro/Pro): −.27 | mean (±SD) LR ([2]; 0.75 ml/kg ethanol, GABAA α6 genotype Pro/Ser): −1.01 | mean LR ([2]; 0.75 ml/kg ethanol, combined SL and SS 5-HTT genotype groups): 0.16±0.75 | proportion of subjects whose LR fell into the lowest third ([2]; 5-HTT genotype LL): 71.4% | proportion of subjects whose LR fell into the lowest third ([2]; 5-HTT genotype SL): 31.6% | proportion of subjects whose LR fell into the lowest third ([2]; 5-HTT genotype SS): 12.5% | LR at age 20 ([2]; LL/PP genotypes): −0.74±1.13 | proportion in the lowest third in response to alcohol ([2]; Pro385 homozygotes): 35.3% | LR at age 20 ([2]; SL/PP genotypes): −0.13±0.88 | LR at age 20 ([2]; SL/PS genotypes): 0.59±1.11 | LR at age 20 ([2]; SS/PP genotypes): 0.03±0.45 | LR at age 20 ([2]; combination of LL 5-HTT and Ser385 GABAA α6 genotypes): −1.29±0.53 | Sensitivity to ethanol ([2]; individuals with the Pro385Ser polymorphism compared with the wild-type polymorphism): reduced sensitivity | proportion in the lowest third in response to alcohol ([2]; those with Ser385 (Pro/Ser)): 71.4%
